# Laboratory results: patent publication US20250177324A1, “A[…], AND PREPARATION METHOD THEREFOR AND USE THEREOF” (SHANGHAI ZHIGEN PHARMACEUTICAL & TECHNOLOGY CO. LTD., priority 2022, published 2025)
# Counter-ions that a name gives are not always drawn. Like-named read-outs stand apart in the source and are kept apart here.
# Legend:
# C57 mice = assay: Forced swim test of oral administration in mice (antidepressant activity); type: in vivo; conditions: for inhibition in vivo at 20 mg/kg: Mus musculus, po
# Description: To investigate the effects of different compounds on depression-like behavior in C57 mice by single oral administration of 20 mg/kg for 1 h and 24 h followed by forced swimming experiment, respectively.
# The experimental animals were 6-week-old C57 mice, male, C57 breed mice purchased from Shanghai Slaughter Laboratory Animal Co. Ltd, weighing 20.45±0.19 g. The animals arrived at the Animal Breeding Center of the Shanghai Institute of Pharmaceutical Sciences, Chinese Academy of Sciences (Animal Production License: SCXK9[Shanghai]2004-0002, Use License: SYXK [Shanghai]2003-0029) before the experiments and were acclimated to the animal facilities for more than 3 days, 6 animals/cage were feed. The feeding environment was room temperature 23±0.2° C. and 12/12 h day/night alternating light and dark. Prior to behavioral testing, animals were moved to the behavioral testing room 2 hours in advance to acclimatize them to the environment and reduce their nervousness.
# Preparation of the test material: the test compounds were weighed and dissolved in 0.9% NaCl solution, mixed well, and prepared into 1 mg/ml and 2 mg/ml solution for use, respectively.
# 24 h prior to drug administration, mice were placed in a cylindrical tank to acclimatize to the water environment for 10 min. On the day of the behavioral test, the animals were administered the drug once, by gavage/intraperitoneal injection at 1 h and 24 h prior to the behavioral test, respectively (as shown in Table 1).
# The antidepressant effect of the compounds was evaluated by their ability to cause a reduction in the immobility time of the animals in the forced swim test compared to the blank group.
# [1] = Solid-state chemical stability under different storage conditions (liquid chromatography); type: physicochemical; conditions: for Stability of solid state compound, 0 Days (%): liquid chromatography
# Description: The HPLC conditions were as follows:
# Configuration of test solution: appropriate amount of sample was dissolved and diluted with a diluent (0.03 mol/L phosphate buffer-acetonitrile (80:20)) to make 1 mg/mL solution.
# Chromatographic conditions: according to the high performance liquid chromatography (Chinese Pharmacopoeia 2020 version of the four general 0512) test, using octadecyl-bonded silica gel (Agilent Eclipse Plus C18, 4.6 mm*250 mm, 5.0 μm, P/N for 959990-902 or a chromatographic column with equivalent performance) as a filler; 0.03 mol/L phosphate buffer (4.08 g of potassium dihydrogen phosphate was dissolved in 1000 ml of water and shaken well) was used as mobile phase A and acetonitrile as mobile phase B at a flow rate of 1 ml/min, the column temperature was 30° C., the detection wavelength was 220 nm, the injection volume was 10 ul, and the sample plate was controlled to 8° C. and running for 65 min. Gradient elution was performed according to the following table: […]
# Configuration of test solution: appropriate amount of the product was dissolved and diluted with a diluent (0.1% phosphoric acid-acetonitrile (80:20)) to make 1 mg/mL solution.
# Chromatographic conditions: according to the high performance liquid chromatography (Chinese Pharmacopoeia 2020 version of the four general 0512) test, using octadecyl bonded silica gel (Agilent Eclipse Plus C18, 4.6 mm*250 mm, 5.0 μm, P/N 959990-902 or a chromatographic column with equivalent performance) as a filler; 0.1% phosphate buffer (1 ml of phosphoric acid in 1000 ml of water and shake well) as mobile phase A, acetonitrile as mobile phase B, flow rate of 1 ml/min, column temperature of 30° C., detection wavelength of 220 nm, injection volume of 10 ul, running for 48 minutes. Gradient elution was performed according to the following table: […]
# [2] = Brain tissue distribution study in rats; type: in vivo; conditions: SD rats, 10 mg/kg gavage
# Description: Healthy male SD rats, randomly grouped with 3 rats in each group, were given the test compounds by gavage.
# Each test compound was dissolved in saline to form a certain concentration solution for administration.
# Fasting but not abstaining from water for 12-14 hours on the day before administration, and food was given 4 h after administration.
# Brain tissues were collected after the animals were bled, cleaned, and homogenized with 50% ice methanol 1:4 (m/v). The collection time points were 5 min, 10 min, 30 min, and 2 h after the administration of subjects; 30.0 μL of tissue samples were taken (the samples were taken from the refrigerator at −80° C. and vortexed for 30 s after natural dissolution at room temperature) into 1.5 mL centrifugal tubes, and 300.0 μL of the internal standard solution (30 ng/mL buspirone in acetonitrile) was added; the samples were vortexed for 60 s, and centrifuged for 3 min (the centrifugal force was 12,000 rpm). 75 μL of the supernatant was transferred to a 96-well plate containing an equal volume of water, shaken to mix well and then sampled for LC-MS/MS analysis, the sample volume is 10 μL.
# [3] = reduction of immobility time vs blank group, single gavage 20 mg/kg, test 1 h after dosing, read-out: 1 h inhibition (%)
# [4] = reduction of immobility time vs blank group, single gavage 20 mg/kg, test 24 h after dosing, read-out: 24 h inhibition (%)
Compound,inhibition in vivo at 20 mg/kg (C57 mice; [3]) [%],inhibition in vivo at 20 mg/kg (C57 mice; [4]) [%],"Stability of solid state compound, 0 Days (%) ([1]; 40° C., 75% RH)","Stability of solid state compound, 10 Days (%) ([1]; 40° C., 75% RH)","Stability of solid state compound, 30 Days (%) ([1]; 40° C., 75% RH)","Stability of solid state compound, 5 Days (%) ([1]; 40° C., 75% RH)",also measured
"C[C@@]1(O)CCC[C@@](N)(c2ccc(C(F)(F)F)cc2)C1=O.Cl [Compound 52, (2R, 6R)-2-amino-6-hydroxy-6-methyl-2-(4-(trifluoromethyl)phenyl)cyclohexan-1-one hydrochloride]",29.5 ± 1.1,25.6 ± 2.1,99.89,99.89,99.90,–,"Stability of solid state compound, 60 Days (%) ([1]; 40° C., 75% RH): 99.88%; Stability of solid state compound, 180 Days (%) ([1]; 40° C., 75% RH, 180 days): 99.82%"
"CN[C@@]1(c2cccc(OC(F)(F)F)c2)CCC[C@](C)(O)C1=O.Cl [Compound 68, (2S,6R)-2-hydroxy-2-methyl-6-methylamino-6-(3-(trifluoromethoxy)phenyl)cyclohexan-1-one hydrochloride]",26.2 ± 4.1,37.4 ± 0.7,99.12,99.12,–,99.11,–
"C[C@]1(O)CCC[C@@](N)(c2ccc(C(F)(F)F)cc2)C1=O.Cl [Compound 54, (2R, 6S)-2-amino-6-hydroxy-6-methyl-2-(4-(trifluoromethyl)phenyl)cyclohexan-1-one hydrochloride]",33 ± 2.5,38.7 ± 3.3,99.27,99.23,–,–,"Stability of solid state compound, 60 Days (%) ([1]; 40° C., 75% RH): 99.20%"
"Cl.[2H]C([2H])([2H])N[C@@]1(c2ccc(C(F)(F)F)cc2)CCC[C@](C)(O)C1=O [Compound 76, (2S,6R)-2-hydroxy-2-methyl-6-trideutero-methylamino-6-(4-(trifluoromethyl)phenyl)cyclohexan-1-one hydrochloride]",65.2 ± 0.8,47.1 ± 3.2,99.88,99.65,99.84,–,–
"CN[C@@]1(c2cccc(OC(F)(F)F)c2F)CCC[C@](C)(O)C1=O [Compound 57, (2R,6S)-2-(2-fluoro-3-(trifluoromethoxy)phenyl)-6-hydroxy-6-methyl-2-(methylamino)cyclohexan-1-one hydrochloride]",42.2 ± 1.8,36.5 ± 3,–,–,–,–,–
"CNC1(c2cccc(F)c2F)CCCC(C)(O)C1=O.Cl (stereo not shown) [Compound 65, 2-(2,3-difluorophenyl)-6-hydroxy-6-methyl-2-methylaminocyclohexan-1-one hydrochloride]",26.4 ± 1.1,37.9 ± 2.3,99.54,99.32,99.22,99.37,–
"N[C@@]1(c2ccccc2Cl)CC2(CC2)C[C@@H](O)C1=O [Comparative compound 5, reference compound]",22.8 ± 2.5,19.1 ± 2.1,–,–,–,–,–
"CC1(C)CC[C@@](N)(c2ccccc2Cl)C(=O)[C@@H]1O [Comparative compound 4, reference compound]",2.9 ± 1,-17.2 ± 2,–,–,–,–,–
"CC1(C)C[C@@H](O)C(=O)[C@](N)(c2ccccc2Cl)C1 [Comparative compound 6, reference compound]",18.2 ± 1.6,11.3 ± 2,–,–,–,–,–
"N[C@@]1(c2ccccc2Cl)CCC[C@@H](O)C1=O [(2R,6R)-HNK, reference compound]",–,–,99.18,97.85,–,98.54,"1 h inhibition (%) (C57 mice; reduction of immobility time vs blank group, single gavage 20 mg/kg, test 1 h after dosing): 21.1 ± 1.4%; 24 h inhibition (%) (C57 mice; reduction of immobility time vs blank group, single gavage 20 mg/kg, test 24 h after dosing): 24.8 ± 6.9%; brain/plasma ratio [2]: 0.95; AUC0-t brain ([2]; brain): 2480 ng·h/g; Cmax brain ([2]; brain): 1495 ng/g; AUC0-t plasma ([2]; plasma): 2610 ng·h/mL; Cmax plasma ([2]; plasma): 1480 ng/mL"
"Cl.N[C@@]1(c2ccc(C(F)(F)F)cc2)CCC[C@@H](O)C1=O [Comparative compound 1, reference compound]",30.6 ± 3.1,35 ± 0.3,99.98,98.74,95.88,98.94,"Stability of solid state compound, 60 Days (%) ([1]; 40° C., 75% RH): 91.57%"
"CCN[C@@]1(c2ccc(C(F)(F)F)cc2)CCC[C@](C)(O)C1=O.Cl [Compound 77, (2R,6S)-2-ethylamino-6-hydroxy-6-methyl-2-(4-(trifluoromethyl)phenyl)cyclohexan-1-one hydrochloride]",69.8 ± 1.6,44.3 ± 3.5,–,–,–,–,"Stability of solid state compound, 0 Days (%) ([1]; 25° C., 60% RH): 99.70%; Stability of solid state compound, 10 Days (%) ([1]; 25° C., 60% RH): 99.69%; Stability of solid state compound, 30 Days (%) ([1]; 25° C., 60% RH): 99.70%"
"CN[C@@]1(c2ccc(C(F)(F)F)cc2)CCC[C@@](C)(O)C1=O.Cl [Compound 71, (2R,6R)-2-hydroxy-2-methyl-6-methylamino-6-(4-(trifluoromethyl)phenyl)cyclohexan-1-one hydrochloride]",42.4 ± 0.4,40.2 ± 1.6,99.67,99.46,99.45,99.46,–
"CNCCC(Oc1ccc(C(F)(F)F)cc1)c1ccccc1 (stereo not shown) [Fluoxetine, reference compound]",2.4 ± 1.1,2.3 ± 3.1,–,–,–,–,"antidepressant effect in the forced swim test (in words) (C57 mice; oral administration, 1 h and 24 h): did not show antidepressant effect"
